Experimental data reported in ChEMBL document CHEMBL5113531, “Discovery of Potent Cholinesterase Inhibition-Based Multi-Target-Directed Lead Compounds for Synaptoprotection in Alzheimer's Disease” (J Med Chem, 2022).
The source made the active and inactive calls. The rule behind the calls is not given here.

Experiments:
Cytochrome P450 2C9 = Cytochrome P450 2C9 (Homo sapiens, UniProt P11712); assay: Inhibition of CYP2C9 (unknown origin) preincubated for 10 mins followed by NADP addition measured after 50 mins; assay type: ADME
Cytochrome P450 2C9, sequence (P11712 whole entry): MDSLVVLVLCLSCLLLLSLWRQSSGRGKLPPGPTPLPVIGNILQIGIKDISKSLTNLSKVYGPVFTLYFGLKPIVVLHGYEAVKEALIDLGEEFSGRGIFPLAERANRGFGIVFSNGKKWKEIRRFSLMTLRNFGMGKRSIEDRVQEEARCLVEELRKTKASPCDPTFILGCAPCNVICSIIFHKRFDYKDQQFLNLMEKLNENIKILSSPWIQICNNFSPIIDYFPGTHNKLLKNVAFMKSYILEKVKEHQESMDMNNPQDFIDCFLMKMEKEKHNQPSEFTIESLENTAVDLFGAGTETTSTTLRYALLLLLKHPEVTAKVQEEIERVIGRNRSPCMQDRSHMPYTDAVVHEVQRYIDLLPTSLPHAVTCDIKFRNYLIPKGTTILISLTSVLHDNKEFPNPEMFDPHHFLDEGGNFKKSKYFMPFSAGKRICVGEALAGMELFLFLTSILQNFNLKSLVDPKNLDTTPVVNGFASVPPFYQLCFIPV

Cytochrome P450 3A4 = Cytochrome P450 3A4 (Homo sapiens, UniProt P08684); assay: Inhibition of CYP3A4 (unknown origin) preincubated for 10 mins followed by NADP addition measured after 50 mins; assay type: ADME
Cytochrome P450 3A4, sequence (P08684 whole entry): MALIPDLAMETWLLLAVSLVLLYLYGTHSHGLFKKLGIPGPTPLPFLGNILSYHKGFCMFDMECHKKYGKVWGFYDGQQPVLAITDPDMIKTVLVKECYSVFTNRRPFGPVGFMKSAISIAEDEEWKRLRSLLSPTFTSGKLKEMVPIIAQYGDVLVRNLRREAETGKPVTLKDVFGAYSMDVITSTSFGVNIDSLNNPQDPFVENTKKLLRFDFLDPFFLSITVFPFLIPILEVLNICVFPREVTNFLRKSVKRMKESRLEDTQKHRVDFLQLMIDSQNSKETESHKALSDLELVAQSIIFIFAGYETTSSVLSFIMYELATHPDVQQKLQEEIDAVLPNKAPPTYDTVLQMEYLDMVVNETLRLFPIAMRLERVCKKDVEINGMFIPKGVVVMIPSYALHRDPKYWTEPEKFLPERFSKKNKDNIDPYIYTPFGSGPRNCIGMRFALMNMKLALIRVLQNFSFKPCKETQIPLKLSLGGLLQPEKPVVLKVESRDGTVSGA

SH-SY5Y [1] = assay: Neuroprotective activity in H2O2 induced stress human SH-SY5Y cell model measured after 48 hrs by MTT assay; assay type: functional, cell-based
SH-SY5Y [2] = assay: Neuroprotective activity in Abeta42 induced stress human SH-SY5Y cell model measured after 72 hrs by CTG luminescence assay; assay type: functional, cell-based
[3] = biological target: Sigma non-opioid intracellular receptor 1 (Cavia porcellus, UniProt Q60492); assay type: cell membranes, Brain, Membrane;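 also: radioligand displacement of [3H]-(+)-pentazocine binding to sigma1 receptor in guinea pig brain membranes, read by scintillation counting after a 120 min incubation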
Sigma non-opioid intracellular receptor 1, sequence (Q60492 whole entry): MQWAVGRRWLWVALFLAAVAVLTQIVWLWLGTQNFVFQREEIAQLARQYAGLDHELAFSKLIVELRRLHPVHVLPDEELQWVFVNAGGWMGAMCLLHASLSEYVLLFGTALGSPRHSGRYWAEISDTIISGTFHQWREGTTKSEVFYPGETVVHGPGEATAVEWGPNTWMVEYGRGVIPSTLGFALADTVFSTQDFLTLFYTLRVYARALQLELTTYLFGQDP
Description: Displacement of [3H]-(+)-pentazocine from sigma1 receptor in guinea pig brain membrane measured after 120 mins by scintillation counting method

Cytochrome P450 2D6 = Cytochrome P450 2D6 (Homo sapiens, UniProt P10635); assay: Inhibition of CYP2D6 (unknown origin) preincubated for 10 mins followed by NADP addition measured after 50 mins; assay type: ADME
Cytochrome P450 2D6, sequence (P10635 whole entry): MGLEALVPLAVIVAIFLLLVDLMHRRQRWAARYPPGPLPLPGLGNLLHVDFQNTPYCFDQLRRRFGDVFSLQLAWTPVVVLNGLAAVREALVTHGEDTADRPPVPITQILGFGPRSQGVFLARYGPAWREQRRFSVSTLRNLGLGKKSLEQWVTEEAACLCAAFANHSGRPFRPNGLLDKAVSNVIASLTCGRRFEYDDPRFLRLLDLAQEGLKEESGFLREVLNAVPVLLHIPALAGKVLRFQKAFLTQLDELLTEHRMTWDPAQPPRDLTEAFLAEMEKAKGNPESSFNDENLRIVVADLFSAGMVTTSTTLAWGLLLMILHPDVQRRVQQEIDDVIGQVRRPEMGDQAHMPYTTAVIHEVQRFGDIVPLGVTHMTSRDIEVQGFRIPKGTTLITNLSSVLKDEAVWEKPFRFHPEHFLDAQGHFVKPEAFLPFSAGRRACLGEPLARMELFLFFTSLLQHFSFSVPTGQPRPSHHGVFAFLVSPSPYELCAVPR

P2X purinoceptor 7 = biological target: T1, P2X purinoceptor 7 (Homo sapiens, UniProt Q99572); assay: Antagonist activity at human P2X7 receptor expressed in HEK293 cells assessed as reduction in YO-PRO-1 iodide dye uptake preincubated for 30 mins followed by YO-PRO-1 iodide addition and measured after 120 mins by fluorescence plate reader analysis; assay type: cell-based
T1 sequence (Q99572 whole entry): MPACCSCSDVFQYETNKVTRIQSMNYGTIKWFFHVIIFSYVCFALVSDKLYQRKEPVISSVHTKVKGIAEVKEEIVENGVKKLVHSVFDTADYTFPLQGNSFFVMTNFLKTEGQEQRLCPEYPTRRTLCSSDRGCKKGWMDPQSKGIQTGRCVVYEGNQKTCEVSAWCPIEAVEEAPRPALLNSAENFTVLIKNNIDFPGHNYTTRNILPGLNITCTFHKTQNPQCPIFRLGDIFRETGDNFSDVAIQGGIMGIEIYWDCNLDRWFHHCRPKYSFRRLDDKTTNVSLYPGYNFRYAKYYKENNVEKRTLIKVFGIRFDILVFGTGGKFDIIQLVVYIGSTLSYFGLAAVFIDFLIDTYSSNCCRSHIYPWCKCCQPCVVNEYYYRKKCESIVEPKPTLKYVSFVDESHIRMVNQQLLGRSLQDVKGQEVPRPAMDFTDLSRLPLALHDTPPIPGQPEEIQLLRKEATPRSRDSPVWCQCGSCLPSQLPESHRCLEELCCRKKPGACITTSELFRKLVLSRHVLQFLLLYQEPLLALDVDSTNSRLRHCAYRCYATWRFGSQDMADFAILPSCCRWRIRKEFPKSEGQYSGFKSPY

[4] = biological target: T2, Sigma intracellular receptor 2 (Rattus norvegicus, UniProt Q5U3Y7); assay: Displacement of [3H]DTG from sigma 2 receptor in rat liver membranes measured after 120 mins by scintillation counting method; assay type: cell membranes, Membrane
T2 sequence (Q5U3Y7 whole entry): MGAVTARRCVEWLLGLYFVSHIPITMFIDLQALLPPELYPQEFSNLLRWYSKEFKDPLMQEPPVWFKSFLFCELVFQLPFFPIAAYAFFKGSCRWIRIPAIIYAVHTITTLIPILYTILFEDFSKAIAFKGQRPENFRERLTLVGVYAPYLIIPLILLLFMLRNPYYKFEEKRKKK

Acetylcholinesterase = Acetylcholinesterase (Homo sapiens, UniProt P22303); assay: Inhibition of human recombinant AChe using acetylthiocholine iodide as substrate incubated for 10 mins by DTNB reagent based Ellman's method
Acetylcholinesterase, sequence (P22303 whole entry): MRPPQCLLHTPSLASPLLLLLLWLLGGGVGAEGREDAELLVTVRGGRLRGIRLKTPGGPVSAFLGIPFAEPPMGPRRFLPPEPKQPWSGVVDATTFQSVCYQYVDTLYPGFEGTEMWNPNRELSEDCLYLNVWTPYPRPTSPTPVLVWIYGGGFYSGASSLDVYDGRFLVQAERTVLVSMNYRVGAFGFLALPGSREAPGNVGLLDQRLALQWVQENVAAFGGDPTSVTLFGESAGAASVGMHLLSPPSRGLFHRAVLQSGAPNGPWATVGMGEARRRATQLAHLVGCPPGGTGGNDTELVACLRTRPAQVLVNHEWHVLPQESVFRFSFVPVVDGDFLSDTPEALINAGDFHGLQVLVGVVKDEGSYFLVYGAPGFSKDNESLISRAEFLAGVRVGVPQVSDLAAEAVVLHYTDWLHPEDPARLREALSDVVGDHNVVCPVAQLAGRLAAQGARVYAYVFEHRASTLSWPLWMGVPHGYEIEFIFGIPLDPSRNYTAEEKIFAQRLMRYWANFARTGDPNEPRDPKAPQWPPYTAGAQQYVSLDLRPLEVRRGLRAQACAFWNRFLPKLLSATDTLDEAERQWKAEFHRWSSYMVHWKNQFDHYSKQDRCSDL

Cholinesterase = Cholinesterase (Homo sapiens, UniProt P06276); assay: Inhibition of human recombinant BuChe using butyrylthiocholine iodide as substrate incubated for 10 mins by DTNB reagent based Ellman's method
Cholinesterase, sequence (P06276 whole entry): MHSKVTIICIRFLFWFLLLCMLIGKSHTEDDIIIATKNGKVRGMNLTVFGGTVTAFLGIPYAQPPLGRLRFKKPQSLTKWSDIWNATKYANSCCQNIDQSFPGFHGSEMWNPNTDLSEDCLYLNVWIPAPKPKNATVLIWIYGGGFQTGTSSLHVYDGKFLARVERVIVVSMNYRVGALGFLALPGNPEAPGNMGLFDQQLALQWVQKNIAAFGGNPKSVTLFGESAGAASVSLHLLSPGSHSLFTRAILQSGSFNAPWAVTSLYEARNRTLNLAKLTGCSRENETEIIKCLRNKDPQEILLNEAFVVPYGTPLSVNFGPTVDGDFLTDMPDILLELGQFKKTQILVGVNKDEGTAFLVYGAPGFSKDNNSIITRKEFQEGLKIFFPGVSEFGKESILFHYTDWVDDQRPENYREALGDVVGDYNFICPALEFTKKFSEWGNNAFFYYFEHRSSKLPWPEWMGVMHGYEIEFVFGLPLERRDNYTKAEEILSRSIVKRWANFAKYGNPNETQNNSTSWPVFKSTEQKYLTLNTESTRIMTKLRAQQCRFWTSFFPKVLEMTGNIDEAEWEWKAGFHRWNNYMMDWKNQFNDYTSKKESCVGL

[5] = Selectivity index, ratio of Ki for displacement of [3H]-(+)-pentazocine from sigma1 receptor in guinea pig brain membrane to Ki for displacement of [3H]DTG from sigma 2 receptor in rat liver membranes; assay type: cell membranes
[6] = biological target: Glutamate receptor ionotropic, NMDA 2B (Homo sapiens, UniProt Q13224); assay: Displacement of [3H]ifenprodil from recombinant human GluN2B NMDA receptor (unknown origin) expressed in dexamethasone-induced mouse L-M(TK-) cell after 120 mins by microbeta scintillation counting method; assay type: cell-based
Glutamate receptor ionotropic, NMDA 2B, sequence (Q13224 whole entry): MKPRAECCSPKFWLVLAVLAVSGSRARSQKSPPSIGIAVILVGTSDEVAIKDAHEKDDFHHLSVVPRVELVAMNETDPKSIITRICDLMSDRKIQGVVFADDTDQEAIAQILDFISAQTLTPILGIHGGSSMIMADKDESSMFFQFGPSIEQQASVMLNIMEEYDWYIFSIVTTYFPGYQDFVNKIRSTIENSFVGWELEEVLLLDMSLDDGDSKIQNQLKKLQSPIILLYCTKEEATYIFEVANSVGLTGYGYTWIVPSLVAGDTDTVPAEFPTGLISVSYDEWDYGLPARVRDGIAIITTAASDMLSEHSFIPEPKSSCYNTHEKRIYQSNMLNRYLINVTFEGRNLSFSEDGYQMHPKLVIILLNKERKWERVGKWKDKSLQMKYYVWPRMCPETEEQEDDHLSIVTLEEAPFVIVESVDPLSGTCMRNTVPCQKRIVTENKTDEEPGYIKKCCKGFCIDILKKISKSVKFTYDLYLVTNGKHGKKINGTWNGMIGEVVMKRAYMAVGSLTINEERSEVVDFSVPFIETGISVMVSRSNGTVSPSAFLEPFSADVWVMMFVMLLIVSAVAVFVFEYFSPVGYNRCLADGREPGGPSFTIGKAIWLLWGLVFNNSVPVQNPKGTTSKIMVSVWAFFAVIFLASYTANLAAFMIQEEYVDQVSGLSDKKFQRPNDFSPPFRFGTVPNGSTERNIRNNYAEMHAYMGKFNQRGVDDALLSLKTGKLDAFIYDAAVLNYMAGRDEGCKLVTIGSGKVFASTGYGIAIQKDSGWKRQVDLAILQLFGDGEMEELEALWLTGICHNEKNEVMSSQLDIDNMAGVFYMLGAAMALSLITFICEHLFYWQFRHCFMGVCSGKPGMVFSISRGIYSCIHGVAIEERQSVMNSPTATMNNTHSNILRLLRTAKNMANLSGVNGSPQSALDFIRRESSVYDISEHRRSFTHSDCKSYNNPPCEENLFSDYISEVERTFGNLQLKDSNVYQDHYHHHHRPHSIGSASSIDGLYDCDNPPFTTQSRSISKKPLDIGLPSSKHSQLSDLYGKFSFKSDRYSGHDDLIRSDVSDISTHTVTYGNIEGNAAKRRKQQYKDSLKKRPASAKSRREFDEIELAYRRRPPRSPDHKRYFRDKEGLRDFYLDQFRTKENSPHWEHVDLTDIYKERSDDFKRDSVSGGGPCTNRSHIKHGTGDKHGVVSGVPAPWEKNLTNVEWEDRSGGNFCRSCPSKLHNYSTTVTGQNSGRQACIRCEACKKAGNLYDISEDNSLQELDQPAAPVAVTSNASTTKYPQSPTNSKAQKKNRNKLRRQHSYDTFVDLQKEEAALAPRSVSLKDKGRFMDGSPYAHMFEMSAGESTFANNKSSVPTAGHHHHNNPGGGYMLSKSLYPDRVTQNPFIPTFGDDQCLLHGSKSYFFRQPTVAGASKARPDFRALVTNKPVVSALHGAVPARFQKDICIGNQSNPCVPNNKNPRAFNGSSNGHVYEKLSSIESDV

Danio rerio [7] = organism: Danio rerio; assay: Neuroprotective activity against Abeta42 induced zebrafish AD model assessed as reversal of reduction in synaptic integrity at 10 uM measured after 5 days; assay type: functional, organism-based; details: time 5.0 day
Danio rerio [8] = organism: Danio rerio; assay: Anti-neuroinflammatory activity in Abeta42 induced zebrafish AD model assessed as reduction in number of activated microglia relative to control; assay type: functional; parameters: scale not given: the % may be the effect or the level left
[9] = Selectivity index, ratio of Ki for displacement of [3H]DTG from sigma 2 receptor in rat liver membranes to Ki for displacement of [3H]-(+)-pentazocine from sigma1 receptor in guinea pig brain membrane; assay type: cell membranes
[10] = Hepatotoxicity in […] cells assessed as reduction in cell viability at 10 to 80 uM measured after 24 hrs by CTG- luminescence assay; assay type: toxicity, cell-based; details: human
PC-12 [11] = assay: Neuroprotective activity in […] PC-12 cells assessed as induction of NGF-mediated neurite outgrowth measured after 4 days by measuring fold change; assay type: functional, Rattus norvegicus; details: time 4 day
PC-12 [12] = assay: Neuroprotective activity in […] PC-12 cells assessed as induction of NGF-mediated neurite sprouting measured after 4 days by measuring fold change; assay type: functional, Rattus norvegicus; details: time 4 day
Danio rerio [13] = organism: Danio rerio; assay: Neuroprotective activity against zebrafish AD model assessed as reversal of reduction in synaptic integrity at 10 uM measured after 5 days relative to control; assay type: functional; parameters: scale not given: the % may be the effect or the level left; details: time 5 day
Danio rerio [14] = organism: Danio rerio; assay: Neuroprotective activity against zebrafish AD model assessed as reversal of reduction in synaptic integrity at 10 uM measured after 5 days in presence of Abeta42 relative to control; assay type: functional; parameters: scale not given: the % may be the effect or the level left; details: time 5 day

For `Cc1cccc2sc(NC(=O)CCN3CCN(c4ccncc4)CC3)nc12`, the IC50 (Cytochrome P450 2C9) was 2.46 µM, the IC50 (Cytochrome P450 3A4) was 1.14 µM and the Activity (SH-SY5Y [1]) was “Active”. The Activity (SH-SY5Y [2]) was “Active”, the Ki [3] was 9.6 µM and the IC50 (Cytochrome P450 2D6) was 13.6 µM. For the same molecule, the IC50 (P2X purinoceptor 7) was 1.13 µM, the Ki [4] was 1.7 µM and the IC50 (Acetylcholinesterase) was 18.2 µM. The IC50 (Cholinesterase) was greater than 40 µM, the Ratio Ki [5] was 5.65 and the Ki [6] was 0.184 µM. For the same molecule, the Activity (Danio rerio [7]) was “Active” and the Activity (Danio rerio [8]) was 25.9%.

With `CCN1CCN(CCC(=O)Nc2nc3c(C)cccc3s2)CC1` the Ki [3] was 0.543 µM, the Ratio Ki [9] was 2.21 and the Ki [4] was 1.2 µM. For the same molecule, the IC50 (Acetylcholinesterase) was 20.6 µM, the IC50 (Cholinesterase) was greater than 40 µM and the Ki [6] was greater than 1 µM.

In the case of `Cc1cccc2sc(NC(=O)CCN3CCN(c4ncccn4)CC3)nc12`, the Ki [3] is reported as 0.505 µM, the Ratio Ki [9] is reported as greater than 1.98 and the IC50 (P2X purinoceptor 7) is reported as 1.33 µM. For the same molecule, the Ki [4] was greater than 1 µM, the IC50 (Acetylcholinesterase) was 30 µM and the IC50 (Cholinesterase) was greater than 40 µM. For the same molecule, the Ki [6] was greater than 1 µM.

In the case of `CCOCCN1CCN(CCC(=O)Nc2nc3c(C)cccc3s2)CC1`, the Ki [3] is reported as 0.575 µM, the Ratio Ki [9] is reported as 2.78 and the Ki [4] is reported as 1.6 µM. It also gave an IC50 (Acetylcholinesterase) of 20.1 µM, an IC50 (Cholinesterase) of 39 µM and a Ki [6] greater than 1 µM.

With `Cc1cccc2sc(NC(=O)CCN3CCN(CC4CCCCC4)CC3)nc12` the Activity (SH-SY5Y [1]) was “Active”, the Activity (SH-SY5Y [2]) was “Active” and the Ki [3] was 0.035 µM. The Ratio Ki [9] was 14.8, the Ki [4] was 0.519 µM and the IC50 (Acetylcholinesterase) was 0.34 µM. For the same molecule, the IC50 (Cholinesterase) was 7.65 µM, the IC50 at 24 h [10] was 30.7 µM and the Ki [6] was 0.06 µM. The Activity (Danio rerio [7]) was “Active”.

Work on `COc1cc2c(cc1OC)C(=O)C(CC1CCN(Cc3ccccc3)CC1)C2` (stereo not drawn) [DONEPEZIL] yielded an Activity (Danio rerio [8]) of 4.3%.

In the case of `Cc1cccc2sc(NC(=O)CCN3CCN(CC4CCCO4)CC3)nc12` (racemic), the Activity (SH-SY5Y [1]) is reported as “Active”, the Activity (SH-SY5Y [2]) is reported as “Active” and the Ki [3] is reported as 0.109 µM. For the same molecule, the Ratio Ki [9] was 45.9, the “fold change (FC)” value (PC-12 [11]) was 2.4 and the Ki [4] was 5 µM. The IC50 (Acetylcholinesterase) was 7.91 µM, the IC50 (Cholinesterase) was 12.8 µM and the IC50 at 24 h [10] was 46.3 µM. For the same molecule, the Ki [6] was 0.457 µM and the Activity (Danio rerio [7]) was “Active”.

`Cc1cccc2sc(NC(=O)CCN3CCN(Cc4ccc(C(C)(C)C)cc4)CC3)nc12` showed a Ki [3] of 0.238 µM, a Ki [4] of 0.238 µM and an IC50 (Acetylcholinesterase) of 40 µM. It also gave an IC50 (Cholinesterase) of 9.32 µM and a Ki [6] greater than 1 µM.

`Cc1cccc2sc(NC(=O)CCN3CCN(Cc4ccccc4F)CC3)nc12` showed a Ki [3] of 1.7 µM, a Ki [4] greater than 1 µM and an IC50 (Acetylcholinesterase) of 5.22 µM. For the same molecule, the IC50 (Cholinesterase) was 2.9 µM and the Ki [6] was greater than 1 µM.

In the case of `Cc1cccc2sc(NC(=O)CCN3CCN(CCN(C)C)CC3)nc12`, the Ki [3] is reported as 1 µM, the IC50 (P2X purinoceptor 7) is reported as 2.15 µM and the Ki [4] is reported as greater than 1 µM. It also gave an IC50 (Acetylcholinesterase) of 0.48 µM, an IC50 (Cholinesterase) greater than 40 µM and a Ki [6] greater than 1 µM.

Work on `Cc1ccccc1N1CCN(CCC(=O)Nc2nc3c(C)cccc3s2)CC1` yielded a Ki [3] of 1 µM, a Ki [4] greater than 1 µM and an IC50 (Acetylcholinesterase) greater than 40 µM. For the same molecule, the IC50 (Cholinesterase) was 8.63 µM and the Ki [6] was greater than 1 µM.

For `Cc1cccc2sc(NC(=O)CCN3CCN(CCN(C(C)C)C(C)C)CC3)nc12`, the “fold change (FC)” value (PC-12 [12]) was 3.7, the Activity (SH-SY5Y [1]) was “Active” and the Activity (SH-SY5Y [2]) was “Active”. For the same molecule, the Ki [3] was 0.809 µM, the Ki [4] was 0.121 µM and the IC50 (Acetylcholinesterase) was 0.24 µM. It also gave an IC50 (Cholinesterase) greater than 40 µM, an Activity (Danio rerio [13]) of 15.1% and a Ratio Ki [5] of 6.68. The Activity (Danio rerio [14]) was 37.1%, the Ki [6] was 0.202 µM and the Activity (Danio rerio [7]) was “Active”.
